The subject of data set [1] is H1299-EGFRwt and H1299-EGFRmt cell models. In words: 3D-VM vasculature under single use of osimertinib (cell model not given). It counts as cell-based. The method, then:
(§1) The assessment of in vitro vasculogenic mimicry (VM) capabilities of cancer cells was conducted utilizing the Matrigel tube formation assay. Chamber slides (TruLive3D Dishes, Burker) were prepared by applying a 100 μl layer of growth factor-reduced Matrigel (Corning) and subsequently allowing for gel solidification over a 30-minute period at 37° C. […] This preparation was then incubated for an additional 30 minutes at 37° C. within a CO2 incubator. […]
(§2) The quantification of tube or lumen formation of 3D-VM vasculature was conducted utilizing an analytical approach on at least eight distinct areas of interest (AOIs), among which three AOIs were specified as representative sections of images. […] First, the AOI was identified and quantified. Following this, the mean ROI was calculated by aggregating the ROIs for all eight AOIs (area 1+ area 2+ . . . area 8) and dividing this sum by eight, thereby deriving an average area that reflects the typical dimensions of the regions analyzed in each individual lung cancer cell model. […]
(§3) The entire quantification process was facilitated by employing the Angiogenesis Analyzer for ImageJ.

Data set [2] has as its system H1299-EGFRwt cell model. To be noted: osimertinib.
Procedure: Cell viability was determined using an MTT assay. Cells were plated at a density of 4×10^3 cells/well within 96-well plates. These cells were then exposed to various concentrations of anti-vasculogenic mimicry (anti-VM) compounds across different time points: 0, 24, 48, and 72 hours. Following the treatment period, the MTT reagent (sourced from Sigma) was added to each well, and the cells were incubated at 37° C. for 2 hours. Subsequently, the plates were centrifuged at 1500 rpm for 10 minutes to facilitate the removal of the supernatant. The resultant formazan crystals were dissolved using dimethyl sulfoxide (DMSO), and the absorbance of the solution, indicative of cell viability, was measured at a wavelength of 492 nm using an ELISA plate reader.
The test system of data set [3] is H1299-EGFRmt cell model. In words: Cell viability, H1299-EGFRmt cell model. Type of data set: cell-based. The method, then: (§4) Cell viability was determined using an MTT assay.
A further data set deals with phosphorylated EGFR. The note with it: Western blot, H1299, H1299-EGFRwt, H1299-EGFRmt cell models. In general terms: In western blotting, separated proteins are transferred to a membrane and probed.
The test system of data set [4] is various tumor xenograft models. To be noted: cited from earlier work.
In data set [5] the test system is HCC827 lung cancer cell model. In words: 3D-VM vasculature disruption, HCC827 lung cancer cell model (real-time LSFM, lumen quantification). It counts as cell-based. The note with it: HCC827, 500 nM, 24-hour incubation. How it is done: (§5) The assessment of in vitro vasculogenic mimicry (VM) capabilities of cancer cells was conducted utilizing the Matrigel tube formation assay. Chamber slides (TruLive3D Dishes, Burker) were prepared by applying a 100 μl layer of growth factor-reduced Matrigel (Corning) and subsequently allowing for gel solidification over a 30-minute period at 37° C. Following solidification, a cell suspension prepared in culture media at a concentration of 1.25×10^5 cells per 150 μl was evenly distributed over the gel surface. This preparation was then incubated for an additional 30 minutes at 37° C. within a CO2 incubator. […]
as §2, §3

Data set [6] deals with H1299 cell model. In words: 2D-VM networks inhibition assay via high-content imaging, H1299. Type of data set: cell-based. To be noted: H1299, compared with H1299-EGFRmt cell model. How it is done: (§6) Cells to be tested were plated in 96-well plates (manufactured by Greiner) and allowed to adhere overnight under standard culture conditions. Following attachment, the cells to be tested were exposed to various concentrations of anti-VM compound foslinanib (ABEx BIO-Research Center). The treatment's efficacy, specifically its ability to inhibit VM vasculature, was monitored time-dependent. The assessment of 2D-VM network disruption was conducted using the ImageXpressR Micro Confocal High-Content Imaging System (Molecular Devices LLC). This advanced imaging technology facilitates high-resolution visualization of cell morphology and tubular networks. Analysis of the imaging data was performed using MetaXpress software, allowing for quantitative measurement of 2D-VM network inhibition. This methodological approach provides a robust framework for evaluating the potential of anti-VM compounds.

Data set [7] concerns H1299 cell model. In words: Cell viability, H1299 cell model. Type of data set: cell-based. To be noted: H1299, high concentration (beyond 250 nM). How it is done: as §4
The subject of a further data set is LAMC2. Briefly: Western blot, LAMC2 in H1299, H1299-EGFRwt and H1299-EGFRmt cell models. Type of data set: cell-based. The note with it: across the examined cell lines.
For data set [8], the system named is H1299-EGFRwt cell model. Briefly: 3D-VM vasculature disruption, H1299-EGFRwt cell model. It counts as cell-based. To be noted: foslinanib 62.5 nM. The method, then:
as §1, §2, §3

Data set [9] relates to H1299-EGFRmt cell model. In words: 2D-VM networks inhibition assay via high-content imaging, H1299-EGFRmt. To be noted: any concentration beyond 31.25 nM. It counts as cell-based. The method, then:
as §6

Data set [10] in a line: Cell viability (MTT assay), HCC827. It counts as cell-based. The note with it: human, HCC827 cells; HCC827, 62.5 nM. How it is done:
as §4

Data set [11] relates to H1650 lung cancer cell model. In words: 3D-VM vasculature disruption, H1650 lung cancer cell model (real-time LSFM, lumen quantification). It counts as cell-based. How it is done: The assessment of in vitro vasculogenic mimicry (VM) capabilities of cancer cells was conducted utilizing the Matrigel tube formation assay. Chamber slides (TruLive3D Dishes, Burker) were prepared by applying a 100 μl layer of growth factor-reduced Matrigel (Corning) and subsequently allowing for gel solidification over a 30-minute period at 37° C. Following solidification, a cell suspension prepared in culture media at a concentration of 1.25×10^5 cells per 150 μl was evenly distributed over the gel surface. This preparation was then incubated for an additional 30 minutes at 37° C. within a CO2 incubator. After this initial incubation period, an overlay of 1× Matrigel mixed with culture medium was applied directly to the cells, so as to obtain a pre-cell model (10), and followed by further incubation at 37° C. for 5 to 24 hours so that a lung cancer cell model (100) was obtained for subsequent 3D-VM observation.
The quantification of tube or lumen formation of 3D-VM vasculature was conducted utilizing an analytical approach on at least eight distinct areas of interest (AOIs), among which three AOIs were specified as representative sections of images. The region of interest (ROI) indicates a delineated patent tube or hollow lumen within each tested cell. First, the AOI was identified and quantified. Following this, the mean ROI was calculated by aggregating the ROIs for all eight AOIs (area 1+ area 2+ . . . area 8) and dividing this sum by eight, thereby deriving an average area that reflects the typical dimensions of the regions analyzed in each individual lung cancer cell model. Finally, the standard average was ascertained by dividing the mean ROI by the mean total tube average. This ratio provides a standardized metric, enabling the effective comparison of anti-3D-VM vasculature efficiency across varying experimental setups or among different cell lines; the formula is as follows: […]
as §3

Data set [12] relates to H1299-EGFRmt cell model. Briefly: 3D-VM vasculature disruption, H1299-EGFRmt cell model. It counts as cell-based. How it is done:
as §5, §2, §3

The test system of another data set is H1650 cells. Briefly: Cell viability (MTT assay), H1650. It counts as cell-based. The note with it: H1650 lung cancer cell model, various foslinanib concentrations. The method, then:
as §4

Data set [13] has as its system H1299-EGFRwt cell model. Briefly: 2D-VM networks inhibition assay via high-content imaging, H1299-EGFRwt. Type of data set: cell-based. The note with it: high concentration (beyond 31.25 nM). How it is done: as §6

Procedure for LAMC2: (§7) Cells were seeded at a density of 2×10^6 cells in a 6 cm culture dish for protein sample preparation. […] After centrifugation, the cell lysate samples were boiled with 6X sample buffer for 10 minutes. The cell lysate protein samples were separated by SDS-PAGE and transferred to polyvinylidene difluoride (PVDF) membranes (Millipore). The membranes were then blocked with 5% skim milk (HIMEDIA) dissolved in Tris-buffered saline Tween (TBST) buffer for 1 hour, followed by three 10-minute washes with TBST. […] Subsequently, the membranes were incubated with the appropriate secondary antibodies for 1 hour at room temperature. Protein expressions were visualized using Western Lightning Plus ECL (PerkinElmer), detected by the iBright FL1000 imaging system, and analyzed using ImageJ software.
Procedure for phosphorylated EGFR: as §7

Turning to `C=CC(=O)Nc1cc(Nc2nccc(-c3cn(C)c4ccccc34)n2)c(OC)cc1N(C)CCN(C)C` [osimertinib], the “3D-VM vasculature (quantitative analysis)” value in data set [1] (after osimertinib treatment) is reported as “significantly disrupted”. Besides, the “formation of 3D-VM vasculature (3D imaging)” value in data set [1] (osimertinib) is recorded as “did not impact”. Also, the cytotoxic effects entry is listed as “cytotoxic effects” in the data set with H1299-EGFRwt cell model [2] and “cytotoxic effects” with H1299-EGFRmt cell model [3] (H1299mt cell model, osimertinib). Moreover, in the data set on phosphorylated EGFR, the “levels of phosphorylated EGFR” value is “markedly reduced”.
For the compound `COc1ccc2[nH]c(-c3cccc(F)c3)cc(=O)c2c1OP(=O)(O)O` [foslinanib], the anti-tumor efficacy entry in [4] is “robust anti-tumor efficacy”. The lumen area entry in data set [5] is “significant reduction”; in data set [11] (H1650, 250 nM and 500 nM) it was “significantly reduced”. Further, the “2D total network area” value in the data set with H1299 cell model [6] is “less effective inhibition”; in the data set on H1299-EGFRmt cell model [9], “decreasing trend”. Besides, the “2D total network length” value is “less effective inhibition” in the data set with H1299 cell model [6] and “decreasing trend” in the data set with H1299-EGFRmt cell model [9]. The cell viability entry in the data set with H1299 cell model [7] was “suppressed”; in the data set with H1299-EGFRmt cell model [3] (H1299-EGFRmt, 31.25 nM (range 7.8125 nM to 500 nM)) it was “significant decrease”. The LAMC2 protein levels entry in the data set on LAMC2 is given as “significant decrease”. Also, in the data set with H1299-EGFRwt cell model [8], the “effect on 3D-VM vasculature” value is on record as “disruptive effect”. The viability (as a rule, a read-out of living cells in per cent, often relative to untreated cells) at 0.0625 µM in data set [10] was found to be 70%. For the same compound, the “disruption of VM lumens” value in data set [11] (H1650, 62.5 nM) is reported as “disruption of VM lumens”. Moreover, in data set [11] (H1650, 250 nM and 500 nM), the “inhibition of 3D-VM vasculature” value was “significant inhibition”. Moreover, the “disruption of 3D-VM vasculature (quantitative analysis)” value in the data set on H1299-EGFRmt cell model [12] is reported as “significant”. Further, the “cell toxicity against H1650 cells” value in the data set with H1650 cells was “no significant cell toxicity”. The “inhibitory effect on the formation of a 2D-VM network” value with H1299-EGFRwt cell model [13] is recorded as “rather insignificant”.

Values taken from patent US20250066737A1, “METHOD FOR ESTABLISHING LUNG CANCER CELL MODEL HAVING VASCULAR TUBES, PLATFORM FOR LUNG CANCER MEDICINE SCREENING AND METHOD FOR USING THEREOF” (National Cheng Kung University Hospital, priority 2023, published 2025).
